Source: ChEMBL document CHEMBL3992540, “Novel indolin-2-one-based sulfonamides as carbonic anhydrase inhibitors: Synthesis, in vitro biological evaluation against carbonic anhydrases isoforms I, II, IV and VII and molecular docking studies” (Eur J Med Chem, 2017)

Tests used:
Carbonic anhydrase 1 = Carbonic anhydrase 1 (Homo sapiens, UniProt P00915); test: Inhibition of human recombinant carbonic anhydrase 1 incubated for 15 mins prior to testing by stopped-flow CO2 hydration assay
Carbonic anhydrase 2 = Carbonic anhydrase 2 (Homo sapiens, UniProt P00918); test: Inhibition of human recombinant carbonic anhydrase 2 incubated for 15 mins prior to testing by stopped-flow CO2 hydration assay
Carbonic anhydrase 7 = Carbonic anhydrase 7 (Homo sapiens, UniProt P43166); test: Inhibition of human recombinant carbonic anhydrase 7 incubated for 15 mins prior to testing by stopped-flow CO2 hydration assay
Chain of Carbonic anhydrase 7 (P43166 whole entry): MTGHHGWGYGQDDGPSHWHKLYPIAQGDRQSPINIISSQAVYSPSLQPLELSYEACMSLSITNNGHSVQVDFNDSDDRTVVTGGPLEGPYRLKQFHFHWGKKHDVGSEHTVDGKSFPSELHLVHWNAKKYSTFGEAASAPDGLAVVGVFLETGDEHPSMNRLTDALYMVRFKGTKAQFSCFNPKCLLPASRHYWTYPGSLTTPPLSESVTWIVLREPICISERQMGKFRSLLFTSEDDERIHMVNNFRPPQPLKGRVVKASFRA

Carbonic anhydrase 4 = Carbonic anhydrase 4 (Homo sapiens, UniProt P22748); test: Inhibition of human recombinant carbonic anhydrase 4 incubated for 15 mins prior to testing by stopped-flow CO2 hydration assay
Chain of Carbonic anhydrase 4 (P22748 whole entry): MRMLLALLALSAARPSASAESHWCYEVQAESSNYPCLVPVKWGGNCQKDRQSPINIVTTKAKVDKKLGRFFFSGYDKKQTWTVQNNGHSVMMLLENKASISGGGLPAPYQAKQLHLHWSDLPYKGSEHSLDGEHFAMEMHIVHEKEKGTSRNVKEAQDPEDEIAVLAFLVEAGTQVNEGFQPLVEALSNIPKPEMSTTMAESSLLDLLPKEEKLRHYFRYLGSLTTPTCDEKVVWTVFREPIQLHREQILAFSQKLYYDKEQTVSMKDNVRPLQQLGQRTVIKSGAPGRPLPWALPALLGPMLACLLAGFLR

Chain of Carbonic anhydrase 1 (P00915 whole entry): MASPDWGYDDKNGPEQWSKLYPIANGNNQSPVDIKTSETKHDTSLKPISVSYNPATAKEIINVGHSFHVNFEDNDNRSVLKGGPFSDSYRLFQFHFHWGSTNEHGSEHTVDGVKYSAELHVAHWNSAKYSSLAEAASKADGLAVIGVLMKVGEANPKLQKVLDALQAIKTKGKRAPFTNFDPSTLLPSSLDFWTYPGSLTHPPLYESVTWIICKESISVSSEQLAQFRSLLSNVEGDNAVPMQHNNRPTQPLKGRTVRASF

| SMILES | Ki (Carbonic anhydrase 1) [nM] | Ki (Carbonic anhydrase 2) [nM] | Ki (Carbonic anhydrase 7) [nM] | Ki (Carbonic anhydrase 4) [nM] |
| --- | --- | --- | --- | --- |
| Cc1ccc2c(c1)/C(=C1/S/C(=N/CCc3ccc(S(N)(=O)=O)cc3)NC1=O)C(=O)N2 | 845 | 63.9 | 67.2 |  |
| Cc1ccc2c(c1)/C(=N/CCc1ccc(S(N)(=O)=O)cc1)C(=O)N2 | 316 |  |  |  |
| CN1C(=O)/C(=N\CCc2ccc(S(N)(=O)=O)cc2)c2ccccc21 | 42 |  | 28.6 |  |
| NS(=O)(=O)c1ccc(CC/N=C2\NC(=O)/C(=C3/C(=O)Nc4ccc(Br)cc43)S2)cc1 | 3600 | 157 | 79.3 | 40.7 |
| NS(=O)(=O)c1ccc(CC/N=C2\NC(=O)/C(=C3/C(=O)Nc4ccc([N+](=O)[O-])cc43)S2)cc1 | 265 | 28.6 |  |  |
| NS(=O)(=O)c1ccc(CC/N=C2\NC(=O)/C(=C3/C(=O)Nc4ccc(Cl)cc43)S2)cc1 | 4450 | 302 |  |  |
| NS(=O)(=O)c1ccc(CC/N=C2\NC(=O)/C(=C3/C(=O)Nc4ccccc43)S2)cc1 | 875 | 262 |  |  |
| NS(=O)(=O)c1ccc(CC/N=C2\C(=O)Nc3ccccc32)cc1 | 92.5 |  |  |  |
| CN1C(=O)/C(=N\CCc2ccc(S(N)(=O)=O)cc2)c2cc(Cl)ccc21 | 668 | 7.7 | 91 | 31.2 |
| COc1ccc2c(c1)/C(=N/CCc1ccc(S(N)(=O)=O)cc1)C(=O)N2 | 206 |  |  |  |
| NS(=O)(=O)c1ccc(CC/N=C2\NC(=O)CS2)cc1 | 93.9 | 6.6 | 13.2 | 79.4 |
| Cc1cc(C)c2c(c1)/C(=N/CCc1ccc(S(N)(=O)=O)cc1)C(=O)N2 | 256 | 50.5 | 90.9 |  |
| NS(=O)(=O)c1ccc(CC/N=C2\C(=O)N(Cc3ccccc3)c3ccc(Cl)cc32)cc1 | 8550 |  | > 10000 |  |
| NS(=O)(=O)c1ccc(CC/N=C2\C(=O)N(Cc3ccccc3)c3ccccc32)cc1 | 746 |  | 536 |  |
| NS(=O)(=O)c1ccc(CC/N=C2\C(=O)Nc3ccc(Br)cc32)cc1 | 81.5 |  |  |  |
| CN1C(=O)/C(=N\CCc2ccc(S(N)(=O)=O)cc2)c2cc(Br)ccc21 | 64.9 | 5.9 |  |  |
| NS(=O)(=O)c1ccc(CC/N=C2\C(=O)N(Cc3ccccc3)c3ccc(Br)cc32)cc1 | 6150 |  |  |  |
| NS(=O)(=O)c1ccc(CC/N=C2\C(=O)Nc3ccc(Cl)cc32)cc1 | 64.1 |  |  |  |
